Measured values published in patent publication US9149038B2, “4-amino-6-(heterocyclic)picolinates and 6-amino-2-(heterocyclic)pyrimidine-4-carboxylates and their use as herbicides” (Dow AgroSciences LLC, priority 2013, dated 2015).
Where two headings read alike, the source gives them in different places.

How the values were obtained:
[1] = tested on: Key Broadleaf Weed and Crop Species; test: Post-Emergent Test II: postemergent herbicidal activity, visual rating after 14 d (Table 7); format: in vivo; settings: post-emergence, 336 h; for pest or weed control at 35 g/ha: 35 g ai/ha; for pest or weed control at 70 g/ha: 70 g ai/ha; for pest or weed control at 140 g/ha: 140 g ai/ha
Procedure, shortened: (§1)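 Plants were raised in a greenhouse for 7-21 d and treated once at the first or second true leaf stage. Compounds, dissolved in 97:3 acetone:DMSO then diluted into an aqueous acetone/isopropanol/crop oil/Triton X-155 carrier, were applied by overhead track sprayer at 187 L/ha. After 14 d with subirrigation, injury was scored visually from 0 (none) to 100 (complete kill).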

[2] = tested on: Key Grass and Sedge Weeds as well as Grass Crops; test: Post-Emergent Test II: postemergent herbicidal activity, visual rating after 14 d (Table 8); format: in vivo; settings: post-emergence, 336 h; for pest or weed control at 35 g/ha: 35 g ai/ha; for pest or weed control at 70 g/ha: 70 g ai/ha; for pest or weed control at 140 g/ha: 140 g ai/ha
Procedure, shortened: as §1

[3] = lambsquarters (Chenopodium album), read-out: Visual Growth Reduction (%) 14 Days After Application CHEAL
[4] = oilseed rape, canola (Brassica napus), read-out: Visual Growth Reduction (%) 14 Days After Application BRSNN
[5] = redroot pigweed (Amaranthus retroflexus), read-out: Visual Growth Reduction (%) 14 Days After Application AMARE
[6] = sunflower (Helianthus annuus), read-out: Visual Growth Reduction (%) 14 Days After Application HELAN
[7] = velvetleaf (Abutilon theophrasti), read-out: Visual Growth Reduction (%) 14 Days After Application ABUTH
[8] = wild poinsettia (Euphorbia heterophylla), read-out: Visual Growth Reduction (%) 14 Days After Application EPHHL
[9] = barnyardgrass (Echinochloa crus-galli), read-out: Visual Growth Reduction (%) 14 Days After Application ECHCG
[10] = giant foxtail (Setaria faberi), read-out: Visual Growth Reduction (%) 14 Days After Application SETFA
[11] = maize, corn (Zea mays), read-out: Visual Growth Reduction (%) 14 Days After Application ZEAMX
[12] = rice (Oryza sativa), read-out: Visual Growth Reduction (%) 14 Days After Application ORYSA
[13] = wheat, spring (Triticum aestivum), read-out: Visual Growth Reduction (%) 14 Days After Application TRZAS
[14] = yellow nutsedge (Cyperus esculentus), read-out: Visual Growth Reduction (%) 14 Days After Application CYPES

| Structure (SMILES) | pest or weed control at 35 g/ha [1, 3] | pest or weed control at 70 g/ha [1, 3] | pest or weed control at 140 g/ha [1, 3] | pest or weed control at 35 g/ha [1, 4] | pest or weed control at 70 g/ha [1, 4] | pest or weed control at 140 g/ha [1, 4] | pest or weed control at 35 g/ha [1, 5] | pest or weed control at 70 g/ha [1, 5] | pest or weed control at 140 g/ha [1, 5] | pest or weed control at 35 g/ha [1, 6] | pest or weed control at 70 g/ha [1, 6] | pest or weed control at 140 g/ha [1, 6] | pest or weed control at 35 g/ha [1, 7] | pest or weed control at 70 g/ha [1, 7] | pest or weed control at 140 g/ha [1, 7] | pest or weed control at 35 g/ha [1, 8] | pest or weed control at 70 g/ha [1, 8] | pest or weed control at 140 g/ha [1, 8] | pest or weed control at 35 g/ha [2, 9] | pest or weed control at 70 g/ha [2, 9] | other results |
| --- | --- | --- | --- | --- | --- | --- | --- | --- | --- | --- | --- | --- | --- | --- | --- | --- | --- | --- | --- | --- | --- |
| Nc1c(Cl)c(C(=O)O)nc(-c2ccc3c(c2F)OC(F)(F)O3)c1Cl [Compound 5] | 0 to 29% | 0 to 29% | 0 to 29% | 45 to 59% | 60 to 74% | 60 to 74% | 0 to 29% | 0 to 29% | 0 to 29% | 30 to 44% | 30 to 44% | 45 to 59% | 0 to 29% | 0 to 29% | 0 to 29% | 0 to 29% | 0 to 29% | 0 to 29% | 0 to 29% | 0 to 29% | pest or weed control at 140 g/ha [2, 9]: 0 to 29%; pest or weed control at 35 g/ha [2, 10]: 0 to 29%; pest or weed control at 70 g/ha [2, 10]: 0 to 29%; pest or weed control at 140 g/ha [2, 10]: 0 to 29%; pest or weed control at 35 g/ha [2, 11]: 0 to 29%; pest or weed control at 70 g/ha [2, 11]: 0 to 29%; pest or weed control at 140 g/ha [2, 11]: 0 to 29%; pest or weed control at 35 g/ha [2, 12]: 0 to 29%; pest or weed control at 70 g/ha [2, 12]: 0 to 29%; pest or weed control at 140 g/ha [2, 12]: 0 to 29%; pest or weed control at 35 g/ha [2, 13]: 0 to 29%; pest or weed control at 70 g/ha [2, 13]: 0 to 29%; pest or weed control at 140 g/ha [2, 13]: 0 to 29%; pest or weed control at 35 g/ha [2, 14]: 0 to 29%; pest or weed control at 70 g/ha [2, 14]: 0 to 29%; pest or weed control at 140 g/ha [2, 14]: 0 to 29% |
| COC(=O)c1nc(-c2ccc3c(c2)OC(F)(F)O3)c(F)c(N)c1Cl [Compound 6] | 95 to 100% | 95 to 100% | 95 to 100% | 75 to 84% | 85 to 94% | 85 to 94% | 75 to 84% | 75 to 84% | 95 to 100% | 85 to 94% | 85 to 94% | 95 to 100% | 95 to 100% | 95 to 100% | 95 to 100% | 85 to 94% | 85 to 94% | 95 to 100% | 95 to 100% | 95 to 100% | pest or weed control at 140 g/ha [2, 9]: 95 to 100%; pest or weed control at 35 g/ha [2, 10]: 60 to 74%; pest or weed control at 70 g/ha [2, 10]: 75 to 84%; pest or weed control at 140 g/ha [2, 10]: 85 to 94%; pest or weed control at 35 g/ha [2, 11]: 85 to 94%; pest or weed control at 70 g/ha [2, 11]: 85 to 94%; pest or weed control at 140 g/ha [2, 11]: 85 to 94%; pest or weed control at 35 g/ha [2, 12]: 30 to 44%; pest or weed control at 70 g/ha [2, 12]: 45 to 59%; pest or weed control at 140 g/ha [2, 12]: 45 to 59%; pest or weed control at 35 g/ha [2, 13]: 45 to 59%; pest or weed control at 70 g/ha [2, 13]: 60 to 74%; pest or weed control at 140 g/ha [2, 13]: 60 to 74%; pest or weed control at 35 g/ha [2, 14]: 95 to 100%; pest or weed control at 70 g/ha [2, 14]: 95 to 100%; pest or weed control at 140 g/ha [2, 14]: 95 to 100% |
| Nc1c(F)c(-c2ccc3c(c2)OC(F)(F)O3)nc(C(=O)O)c1Cl [Compound 7] | 95 to 100% | 95 to 100% | 95 to 100% | 85 to 94% | 85 to 94% | 95 to 100% | 75 to 84% | 95 to 100% | 95 to 100% | 95 to 100% | 95 to 100% | 95 to 100% | 85 to 94% | 85 to 94% | 95 to 100% | 95 to 100% | 95 to 100% | 95 to 100% | 95 to 100% | 95 to 100% | pest or weed control at 140 g/ha [2, 9]: 95 to 100%; pest or weed control at 35 g/ha [2, 10]: 95 to 100%; pest or weed control at 70 g/ha [2, 10]: 95 to 100%; pest or weed control at 140 g/ha [2, 10]: 95 to 100%; pest or weed control at 35 g/ha [2, 11]: 95 to 100%; pest or weed control at 70 g/ha [2, 11]: 95 to 100%; pest or weed control at 140 g/ha [2, 11]: 95 to 100%; pest or weed control at 35 g/ha [2, 12]: 30 to 44%; pest or weed control at 70 g/ha [2, 12]: 30 to 44%; pest or weed control at 140 g/ha [2, 12]: 60 to 74%; pest or weed control at 35 g/ha [2, 13]: 45 to 59%; pest or weed control at 70 g/ha [2, 13]: 60 to 74%; pest or weed control at 140 g/ha [2, 13]: 60 to 74%; pest or weed control at 35 g/ha [2, 14]: 95 to 100%; pest or weed control at 70 g/ha [2, 14]: 95 to 100%; pest or weed control at 140 g/ha [2, 14]: 95 to 100% |
| COC(=O)c1nc(-c2ccc3c(c2)OC(C)(C)O3)c(F)c(N)c1Cl [Compound 8] | 45 to 59% | 75 to 84% | 85 to 94% | 60 to 74% | 60 to 74% | 75 to 84% | 0 to 29% | 45 to 59% | 60 to 74% | 0 to 29% | 45 to 59% | 85 to 94% | 95 to 100% | 95 to 100% | 95 to 100% | 95 to 100% | 95 to 100% | 95 to 100% | 95 to 100% | 95 to 100% | pest or weed control at 140 g/ha [2, 9]: 95 to 100%; pest or weed control at 35 g/ha [2, 10]: 85 to 94%; pest or weed control at 70 g/ha [2, 10]: 95 to 100%; pest or weed control at 140 g/ha [2, 10]: 95 to 100%; pest or weed control at 35 g/ha [2, 11]: 95 to 100%; pest or weed control at 70 g/ha [2, 11]: 95 to 100%; pest or weed control at 140 g/ha [2, 11]: 95 to 100%; pest or weed control at 35 g/ha [2, 12]: 0 to 29%; pest or weed control at 70 g/ha [2, 12]: 0 to 29%; pest or weed control at 140 g/ha [2, 12]: 30 to 44%; pest or weed control at 35 g/ha [2, 13]: 0 to 29%; pest or weed control at 70 g/ha [2, 13]: 30 to 44%; pest or weed control at 140 g/ha [2, 13]: 30 to 44%; pest or weed control at 35 g/ha [2, 14]: 95 to 100%; pest or weed control at 70 g/ha [2, 14]: 95 to 100%; pest or weed control at 140 g/ha [2, 14]: 95 to 100% |
